# Laboratory results published in patent US12116636B2, “Methods for evaluating tumor cell spheroids using 3D microfluidic cell culture device” (Dana-Farber Cancer Institute, Inc., priority 2017, dated 2024).
# Key:
# MB49 allograft = assay: In vivo Compound 1 combination treatment, allograft; parameters: species or system B6 mice; conditions: Cmpd1 + αPD-L1
# CT26 and EMT6 cells = assay: Re-implantation of CT26 and EMT6 cells after combination therapy (immunologic memory); assay type: in vivo, mice; conditions: previously treated with anti-PD-L1 + Compound 1
# Description: (§1) Combination studies were performed by vivoPharm (Hummelstown, PA, USA). All procedures used in the performance of these studies were carried out in accordance with vivoPharm's Standard Operating Procedures, with particular reference to US_SOPvP_EF0314 “General Procedures for Efficacy Studies.” CT26 colon carcinoma cells (1×10^6 cells/mouse in 100 μL, passage 2-3) were re-suspended in serum-free DMEM and implanted in the upper right flank of 11-12 week old female Balb/c mice (Charles River Laboratories). Mice were randomized into four groups of 10 using a matched pair distribution method based on tumor size for CT26. Treatment was initiated 12 days post-inoculation with mean tumor volume at start of dosing of 125.85 mm^3. Vehicle or Compound 1 (40 mg/kg) was administered by oral gavage daily for 26 days and isotype control or a reverse chimera anti-PD-L1 cloned from literature reports (e.g., Deng, R. et al. MAbs (2016), the content of which is incorporated herein by reference in entirety) and placed into a mouse IgG1 framework (10 mg/kg) was administered every 5 days for a total of six doses. Investigators were not blinded to treatment groups. […] Mice were scarified on Day 13 and lung metastases were quantified (small≤1 mm, medium>1 mm and ≤3 mm, large>3 mm). No large lung metastases were detected.
# B16F10 lung metastases = assay: B16F10 tail vein injection model, lung metastases; assay type: in vivo, mice; conditions: Compound 1 40 mg/kg daily 13 days ± anti-PD-L1 10 mg/kg
# Description: as §1
# [1] = test system: CT26 spheroids (lacking immune cells); assay: Cytokine profiling of cell line spheroids lacking immune cells; assay type: cell-based, murine; conditions: Day 1, 3, 6 vs vehicle
# Description: (§2) Fresh tumor specimens (murine and human patients) were received in media (DMEM) on ice and minced in a 10 cm dish (on ice) using sterile forceps and scalpel. Minced tumor was resuspended in DMEM (4.5 mM glucose, […] sodium pyruvate, 1:100 penicillin-streptomycin) (Coming CellGro, Manassas, VA)+10% FBS (Gemini Bio-Products, West Sacramento, CA), 100 U/mL collagenase type IV (Life Technologies, Carlsbad, CA), and 15 mM HEPES (Life Technologies, Carlsbad, CA), except for CT26 tumors that were prepared in RPMI. Samples were pelleted and resuspended in 10-20 mL media. Red blood cells were removed from visibly bloody samples using RBC Lysis Buffer (Boston Bio-Products, Ashland, MA). […]
# (§3) Two multiplex assays were performed utilizing a bead-based immunoassay approach, the Bio-Plex Pro™ Human Cytokine 40-plex Assay (Cat #171AK99MR2) and Bio-Plex Pro™ Mouse Cytokine Panel 1, 23-plex (Cat #M60009RDPD) on a Bio-plex 200 system (Cat #171000201). […] Fold changes relative to the MDOT/PDOT control were calculated and plotted as log 2FC. Lower and upper limits of quantitation (LLOQ/ULOQ) were imputed from standard curves for cytokines above or below detection. […]
# CT26 allograft = assay: In vivo Compound 1 combination treatment, allograft; parameters: species or system Balb/c mice; conditions: Compound 1 40 mg/kg oral daily + anti-PD-L1 10 mg/kg every 5 days
# Description: as §1
# B16F10 MDOTS = assay: Bead-based cytokine profiling of MDOTS conditioned media; assay type: cell-based, murine; conditions: Cmpd1 1 μM ± αPD-1
# Description: as §2, §3
# CT26 MDOTS = assay: as above; assay type: cell-based, murine; conditions: Cmpd1 1 μM ± anti-PD-1 10 μg/mL
# Description: as §2, §3
structure (smiles),measurement,setting,value
"N#Cc1cc(-c2ncnc(Nc3ccc(N4CCN(C5COC5)CC4)cc3)n2)ccc1OC1CCOCC1 [Compound 1, 5-(4-((4-(4-(oxetan-3-yl)piperazin-1-yl)phenyl)amino)-1,3,5-triazin-2-yl)-2-((tetrahydro-2H-pyran-4-yl)oxy)benzonitrile]","response to combination treatment in vivo, MB49 bladder carcinoma",MB49 allograft,enhanced response
same,growth of reimplanted CT26 in mice with exceptional responses to combination therapy,CT26 and EMT6 cells,no growth
same,sensitization of B16F10 tail vein injection model (lung metastases),B16F10 lung metastases,could not be sensitized
same,immune suppressive cytokine elaboration by CT26 cell line spheroids,[1],effectively blocked
same,"survival, CT26 allograft, combination vs Cmpd1 or anti-PD-L1 alone",CT26 allograft,longer survival
same,"tumour control, CT26 allograft, combination vs Cmpd1 or anti-PD-L1 alone",CT26 allograft,greater tumour control
same,G-CSF and related innate immune response cytokines in B16F10 MDOTS,B16F10 MDOTS,without concomitant induction
same,"levels of CCL4, CCL3, and IL-10 in CT26 MDOTS",CT26 MDOTS,Decreased levels
